Reference: paper PMC5091859, “Protein Translation Enzyme lysyl-tRNA Synthetase Presents a New Target for Drug Development against Causative Agents of Loiasis and Schistosomiasis” (PLoS Neglected Tropical Diseases, 2016)
Where “and” joins values, the source holds several entries; their conditions need not be identical. Identical values can stand only once.

Assays:
[1] = tested on: malaria liver stage; design: method as in PMID 22704625; conditions: cited from earlier work
[2] = target: human counterpart KRS (HsKRS); conditions: read-out: Affinity for human counterpart KRS; cited from earlier work
[3] = target: SmKRS (S. mansoni lysyl-tRNA synthetase), wild type (Schistosoma mansoni, UniProt A0A3Q0KK01); experiment: Aminoacylation enzyme inhibition assay, SmKRS; format: biochemical; conditions: 500 nM enzyme, 100 μM ATP, 500 μM L-lysine, 18 μM SmtRNALys, 37°C
Experimental: Aminoacylation and enzyme inhibition assays for both KRSs were performed as described elsewhere [17, 48]. SmtRNA^Lys was refolded prior to enzyme assays by heating at 70°C for 10 minutes followed by addition of 10 mM MgCl2 and slow cooling to room temperature. Aminoacylation buffer for both worm KRSs contained 30 mM HEPES (pH 7.5), 150 mM NaCl, 30 mM KCl, 50 mM MgCl2, 1mM DTT, 100 μM ATP, 500 μM L-lysine, 18 μM SmtRNA^Lys, 2 U/ml E. coli inorganic pyrophosphatase (NEB) and 500 nM recombinant SmKRS or LlKRS protein at 37°C. Reaction at different time points was stopped by addition of 40 mM EDTA followed by transfer to ice. Recombinant maltose binding protein (MBP) was used as a control.

[4] = target: T1, SmKRS (Schistosoma mansoni, UniProt A0A3Q0KK01); experiment: Isothermal titration calorimetry, SmKRS; format: binding; conditions: 30°C
Experimental: (§1) ITC experiments were conducted at 30°C in the MicroCal ITC-200 apparatus (GE Healthcare) and results were fitted into graph using Microcal origin software. […] For LlKRS, titrations consisted of 0.4 μl of first injection followed by 39 injections of 1 μl with 150 s intervals between injections. For SmKRS, same titrations were performed with 120 s intervals.

[5] = design: method as in PMID 22704625; conditions: main limitation as a lead molecule; cited from earlier work
[6] = tested on: malaria blood stage; design: method as in PMID 22704625; conditions: cited from earlier work
[7] = target: T2, LlKRS (Loa loa, UniProt A0A1I7VQ84); experiment: Isothermal titration calorimetry, LlKRS; format: binding; conditions: 30°C
Experimental: as §1

[8] = target: Loa loa lysyl-tRNA synthetase (Loa loa); experiment: SEC; gel permeation chromatography of the purified protein on a column calibrated with high molecular weight standards, protein buffer as mobile phase, 0.5 ml/min; elution at dimer size, no absorbance at tetrameric size
[9] = target: Schistosoma mansoni lysyl-tRNA synthetase (Schistosoma mansoni); experiment: as above
[10] = target: T1, SmKRS; experiment: Protein thermal shift assay, SmKRS; format: binding; conditions: ligand 20 μM, KRS 2 μM (10:1), 1 mM L-lysine
Experimental: (§2) Protein melt curve assays for both worm KRSs were performed as reported earlier. Both KRSs were diluted in buffer containing 20 mM Tris (pH 8.0), 200 mM NaCl, 5 mM MgCl2, 1 mM L-lysine and 2 X SYPRO orange dye (Life Technologies). […] Ligand bound and unbound samples of both KRSs were heated from 20 to 96°C at a rate of 1°C min^-1 and fluorescence signals were monitored by StepOnePlus quantitative real-time PCR system (Life Technologies). […] Each curve was an average of three measurements and data were analyzed using thermal shift software (Life technologies). Samples without the addition of ligands were used to determine thermal melting profile of apo proteins. […] Derivative Tm (melting temperature) was used for analysis.

[11] = target: Human-like LlKRS V329Q/S346T mutant (Loa loa, UniProt A0A1I7VQ84); format: binding; conditions: ligand 20 μM, KRS 2 μM (ten fold), 1 mM L-lysine
[12] = target: T2, LlKRS; experiment: Protein thermal shift assay, LlKRS; format: binding; conditions: ligand 20 μM, KRS 2 μM (10:1), 1 mM L-lysine
Experimental: as §2

Molecule: C[C@H]1CCC[C@H](C[C@H]2Cc3cc(O)cc(O)c3C(=O)O2)O1 [cladosporin]
- IC50 [1]: < 100 nM
- Kd [2]: 3300 nM
- IC50 [3]: 97 nM and ~97 nM
- n Value (one site model), SmKRS [4]: 0.979 ±0.00
- ΔH (ITC), SmKRS [4]: -16.59 ± 0.2013 kcal/mol
- ΔS (ITC), SmKRS [4]: -21.7 cal/mol/deg
- Kd ([4]; PBS pH 7.4, 1 mM L-Lys, 2 mM MgCl2, read-out: Kd (ITC), SmKRS): 62.8 ± 7.8 nM
- Bioavailability [5]: Poor
- IC50 [6]: < 100 nM
- n Value (one site model), LlKRS [7]: 0.821 ± 0.01
- ΔH (ITC), LlKRS [7]: -17.28 ± 0.3965 kcal/mol
- ΔS (ITC), LlKRS [7]: -24.9 cal/mol/deg

Molecule: Loa loa lysyl-tRNA synthetase (enzyme)
- stoichiometry N [8]: 2

Molecule: Schistosoma mansoni lysyl-tRNA synthetase (enzyme)
- stoichiometry N [9]: 2

Molecule: adenosine 5’-(β, γ-imido) triphosphate [AMPPNP]
- Thermal shift of SmKRS [10]: ~ 0.4 °C
- Thermal shift of human-like LlKRS [11]: ~ 0.4 °C
- Thermal shift of LlKRS [12]: ~ 0.3 °C
